Source: patent US8772499B2, “TRPV3 modulators” (AbbVie Inc., priority 2011, dated 2014)
Like-named read-outs stand apart in the source and are kept apart here.

Assays:
human TRPV3 = biological target: T1, human TRPV3 (Homo sapiens, UniProt Q8NET8); assay: In vitro antagonism of recombinant human TRPV3 activation (FLIPR Tetra calcium assay); format: cell-based; conditions: HEK293 cells stably expressing human TRPV3, agonist 2-APB at 80 μM
T1 construct: expressed in transfected cells
T1 sequence (Q8NET8 1-790): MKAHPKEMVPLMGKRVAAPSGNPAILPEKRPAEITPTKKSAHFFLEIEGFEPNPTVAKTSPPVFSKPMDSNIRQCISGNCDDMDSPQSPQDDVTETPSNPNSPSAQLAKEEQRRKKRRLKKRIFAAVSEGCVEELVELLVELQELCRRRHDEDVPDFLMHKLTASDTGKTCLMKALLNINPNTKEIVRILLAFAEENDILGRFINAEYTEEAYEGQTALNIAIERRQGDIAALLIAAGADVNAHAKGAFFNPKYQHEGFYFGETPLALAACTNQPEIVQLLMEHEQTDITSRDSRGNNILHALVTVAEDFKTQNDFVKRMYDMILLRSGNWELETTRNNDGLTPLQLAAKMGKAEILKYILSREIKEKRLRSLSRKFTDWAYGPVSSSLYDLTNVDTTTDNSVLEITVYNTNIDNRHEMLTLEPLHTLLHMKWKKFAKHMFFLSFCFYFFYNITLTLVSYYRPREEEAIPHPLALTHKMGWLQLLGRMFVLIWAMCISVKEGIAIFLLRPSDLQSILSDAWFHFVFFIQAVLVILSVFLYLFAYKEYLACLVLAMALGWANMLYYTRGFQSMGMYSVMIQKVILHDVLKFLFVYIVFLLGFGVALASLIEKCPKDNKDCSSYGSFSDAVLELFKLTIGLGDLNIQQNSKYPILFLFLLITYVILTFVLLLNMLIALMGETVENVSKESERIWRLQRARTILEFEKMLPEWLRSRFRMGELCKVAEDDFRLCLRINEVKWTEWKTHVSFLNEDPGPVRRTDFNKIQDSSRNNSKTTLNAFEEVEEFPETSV
In short: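 Calcium flux read over a 10 min run: compound added at 10 s to Calcium-4-loaded human TRPV3-HEK293 cells, agonist 2-APB (80 μM, its EC80) after 3 min. IC50 derived from peak-minus-baseline signal as percentage of uninhibited 2-APB response, typically averaged over at least two runs.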

[1] = In vitro human microsomal stability assay; format: in vitro ADME
Description: (§1) Test compounds were evaluated for metabolic stability in an in vitro rat microsomal stability assay using rat liver microsomes (Sprague-Dawley, from BD Biosciences) and/or an in vitro human microsomal stability assay using human liver microsomes (Xenotech). […] Incubations were carried out at 37° C. with a final incubation volume of 135 μL. […] A 1.5 μL aliquot of reduced nicotine adenine disphosphonucleotide (NADPH) (Chem-Impex Int'L Inc., Lot 12532024) was also added to the time-zero plates.

[2] = In vitro rat microsomal stability assay; format: in vitro ADME, rat (Sprague-Dawley)
Description: as §1

[3] = actual measured value shown parenthetically, in most cases average of at least two runs, read-out: IC50
[4] = human, microsomes, 0.5 h, 0.5 μM, pH 7.4
[5] = Sprague-Dawley, rat, microsomes, 0.5 h, 0.5 μM, pH 7.4
[6] = reported range, read-out: IC50 (range class)

Compound | IC50 (human TRPV3; [3]) [µM] | HUMAN MICROSOMAL STABILITY (% REMAINING AFTER 30 MINUTES) [1, 4] [%] | RAT MICROSOMAL STABILITY (% REMAINING AFTER 30 MINUTES) [2, 5] [%] | IC50 (human TRPV3; [6]) [µM] | HUMAN MICROSOMAL STABILITY (% REMAINING AFTER 30 MINUTES) ([1]; human liver microsomes, 0.5 μM substrate, 0.25 mg/mL microsomal protein, pH 7.4, 37° C., NADPH, 30 minutes) [%] | RAT MICROSOMAL STABILITY (% REMAINING AFTER 30 MINUTES) ([2]; rat liver microsomes (Sprague-Dawley), 0.5 μM substrate, 0.25 mg/mL microsomal protein, pH 7.4, 37° C., NADPH, 30 minutes) [%]
OC(C1CCc2cccnc21)C1(c2ccccc2C(F)(F)F)CCC1 (stereo not drawn) [Example 197, (anti)-6,7-dihydro-5H-cyclopenta[b]pyridin-7-yl{1-[2-(trifluoromethyl)-phenyl]cyclobutyl}methanol] | > 20 | 0.26 | <0.01 | > 20 |  | 
OC1CC(c2cccc(OC(F)(F)F)c2)(C(O)c2ccccn2)C1 (single isomer, unassigned) [Example 272] | 0.19 | 54 | 48 |  |  | 
O=C1CC(c2ccc(C(F)(F)F)cc2)([C@@H](O)c2ccccn2)C1 (single isomer, unassigned) [Example 165] | 16.6 | 83 | 77 |  |  | 
O=C1CC(c2cc(C(F)(F)F)ccn2)([C@H](O)c2ccccn2)C1 [Example 277, 3-[(S)-hydroxy(pyridin-2-yl)methyl]-3-[4-(trifluoromethyl)pyridin-2-yl]-cyclobutanone] | 1.97 | >85 | >85 |  |  | 
OC(c1ccccn1)C1(c2nc3ccc(Cl)cc3s2)CCC1 (centres unmarked) [Example 292, [1-(6-chloro-1,3-benzothiazol-2-yl)cyclobutyl](pyridin-2-yl)methanol] | 0.56 | 19 | 5.4 |  |  | 
Cc1cccnc1[C@@H](O)C1(c2ccc(Cl)c(Cl)c2)CCC1 [Example 30, (S)-[1-(3,4-dichlorophenyl)cyclobutyl] (3-methylpyridin-2-yl)methanol] | 1.72 | 1.5 | 0.98 |  |  | 
OC(c1ccccn1)C1(c2ccc(C(F)(F)F)cc2)CC(F)(F)C1 (centres unmarked) [Example 133, {3,3-difluoro-1-[4-(trifluoromethyl)phenyl]cyclobutyl}(pyridin-2-yl)-methanol] | 0.12 | 73 | 61 |  |  | 
CN1CCC(c2ccc(C(F)(F)F)cc2)(C(O)c2ccccn2)CC1 (centres unmarked) [Example 143, {1-methyl-4-[4-(trifluoromethyl)phenyl]piperidin-4-yl}(pyridin-2-yl)-methanol] | > 20 |  |  | > 20 | >85 | 80
COC1CC(c2ccc(Cl)c(Cl)c2)([C@H](O)c2ccccn2)C1 (mixture of isomers) [Example 151, (S)-[1-(3,4-dichlorophenyl)-3-methoxycyclobutyl](pyridin-2-yl)methanol] | 1.24 | 32 | <0.01 |  |  | 
OC(c1ccccn1)C1(c2ccccc2C(F)(F)F)CCC1 (centres unmarked) [Example 5, pyridin-2-yl{1-[2-(trifluoromethyl)phenyl]cyclobutyl}methanol] | 5.22 | 0.27 | 0.06 |  |  | 
OC(c1ccccn1)C1(C(c2ccccc2)C(F)(F)F)CCC1 (centres unmarked) [Example 58, pyridin-2-yl[1-(2,2,2-trifluoro-1-phenylethyl)cyclobutyl]methanol] | 3.63 | 36 | 33 |  |  | 
OC(c1ccccn1)C1(c2ccc(C(F)(F)F)cn2)CCC1 (centres unmarked) [Example 115, pyridin-2-yl{1-[5-(trifluoromethyl)pyridin-2-yl]cyclobutyl}methanol] | 19.4 | >85 | 81 |  |  | 

Further lines, with some results ahead:

IC50 (human TRPV3; [3]) [µM] | HUMAN MICROSOMAL STABILITY (% REMAINING AFTER 30 MINUTES) [1, 4] [%] | RAT MICROSOMAL STABILITY (% REMAINING AFTER 30 MINUTES) [2, 5] [%] | IC50 (human TRPV3; [6]) [µM] | Compound | HUMAN MICROSOMAL STABILITY (% REMAINING AFTER 30 MINUTES) ([1]; human liver microsomes, 0.5 μM substrate, 0.25 mg/mL microsomal protein, pH 7.4, 37° C., NADPH, 30 minutes) [%] | RAT MICROSOMAL STABILITY (% REMAINING AFTER 30 MINUTES) ([2]; rat liver microsomes (Sprague-Dawley), 0.5 μM substrate, 0.25 mg/mL microsomal protein, pH 7.4, 37° C., NADPH, 30 minutes) [%]
0.26 | 24 | 18 |  | OC(c1ccccn1)C1(c2cccc(C(F)(F)F)c2)CC(F)(F)C1 (centres unmarked) [Example 113, {3,3-difluoro-1-[3-(trifluoromethyl)phenyl]cyclobutyl}(pyridin-2-yl)-methanol] |  | 
> 20 | 41 | 0.18 | > 20 | Nc1cccnc1C(O)C1(c2ccc(OC(F)(F)F)cc2)CCC1 (centres unmarked) [Example 121, (3-aminopyridin-2-yl) {1-[4-(trifluoromethoxy)phenyl]cyclobutyl}methanol] |  | 
6.6 | 83 | >85 |  | O=C1CC(c2cc(C(F)(F)F)ccn2)([C@@H](O)c2ccccn2)C1 [Example 278, 3-[(R)-hydroxy(pyridin-2-yl)methyl]-3-[4-(trifluoromethyl)pyridin-2-yl]-cyclobutanone] |  | 
13.7 | 11 | 0.23 |  | CC(c1ccc(F)cc1)C1(C(O)c2ccccn2)CCC1 (centres unmarked) [Example 46, {1-[1-(4-fluorophenyl)ethyl]cyclobutyl}(pyridin-2-yl)methanol] |  | 
4.22 | 1.1 | 0.57 |  | OC(c1ccccn1)C1(Cc2cccc(F)c2)CCC1 (centres unmarked) [Example 254, [1-(3-fluorobenzyl)cyclobutyl](pyridin-2-yl)methanol] |  | 
> 20 | >85 | 37 | > 20 | OC(c1ccccn1)C1(c2ccccc2OC(F)(F)F)CCNCC1 (centres unmarked) [Example 142, pyridin-2-yl{4-[2-(trifluoromethoxy)phenyl]piperidin-4-yl}methanol] |  | 
0.29 | 63 | 49 |  | OC1CC(c2ccnc(C(F)(F)F)c2)(C(O)c2ccccn2)C1 [Example 305, cis-3-[(S)-hydroxy(pyridin-2-yl)methyl]-3-[2-(trifluoromethyl)pyridin-4-yl]-cyclobutanol] |  | 
> 20 | 70 | 8.2 | > 20 | O=C1CC(c2cncc(C(F)(F)F)c2)(C(O)c2ccccn2)C1 (centres unmarked) [Example 295, 3-[hydroxy(pyridin-2-yl)methyl]-3-[5-(trifluoromethyl)pyridin-3-yl]-cyclobutanone] |  | 
4.87 | 77 | >85 |  | OC(c1ccccn1)C1(c2ccc(C(F)(F)F)cn2)CC(F)(F)C1 (centres unmarked) [Example 137, {3,3-difluoro-1-[5-(trifluoromethyl)pyridin-2-yl]cyclobutyl}(pyridin-2-yl)-methanol] |  | 
0.42 | 24 | 11 |  | OC(c1ccccn1)C1(c2ccc(OC(F)(F)F)cc2)CCC1 (centres unmarked) [Example 12, pyridin-2-yl{1-[4-(trifluoromethoxy)phenyl]cyclobutyl}methanol] |  | 
2.24 | 44 | 55 |  | O=C1CC(c2cccc(OC(F)(F)F)c2)([C@H](O)c2ccccn2)C1 (single isomer, unassigned) [Example 256] |  | 
0.6 | 7.4 | 19 |  | OC(c1ccccn1)C1(c2cc(C(F)(F)F)cc(C(F)(F)F)c2)CCC1 (centres unmarked) [Example 13, {1-[3,5-bis(trifluoromethyl)phenyl]cyclobutyl}(pyridin-2-yl)methanol] |  | 
3.88 | 0.02 | <0.01 |  | OC(c1ccccn1)C1(C2CCCCC2)CCC1 (centres unmarked) [Example 162, (1-cyclohexylcyclobutyl)(pyridin-2-yl)methanol] |  | 
